# Experimental data reported in patent publication US20140227419A1, “ANTI-FUNGAL AGENT FOR PROCESSED CEREAL FOODS” (NAGASE & co., LTD., priority 2011, published 2014).
# Tested on: mold
# Assay: Anti-fungal effect by spraying method (2): loaves with calcium propionate kneaded into the dough sprayed, mold growth checked visually
# Conditions: 0.3% calcium propionate kneaded into bread dough; sprayed with nothing
# Description: Three hundred and thirty grams of bread dough (dough) of the raw materials blended in the ratio shown in Table 1 (Example 1) was mixed at a low speed for 5 minutes, and then, was mixed at a high speed for 7 minutes. The dough was retained at 35° C. for 100 minutes to be leavened, and then, was baked at 140° C. for 20 minutes to obtain a loaf of bread (hereinafter, referred to as a “loaf”).
# The obtained loaf was left to room temperature, and the entire surface of the loaf (approximately 280 g) was sprayed with a spraying agent (approximately 10 μL/cm^2) shown in Table 2 (“0.1% chitinase” means a concentration when 1 mg of chitinase is added with respect to 1 ml of the spraying agent). The loaves were retained in the atmosphere to dry the surface, and then, the loaves were independently put into separate plastic bags and were preserved at a room temperature. The presence or the absence of the growth of mold was checked visually. […]
# The anti-fungal effects of the spraying agents 1 to 3 were evaluated in the same manner as in Example 1, except that the raw materials were blended in the ratio shown in Table 1 (Example 2) instead of the ratio shown in Table 1 (Example 1). […]
smiles,measurement,value
CCC(=O)[O-].CCC(=O)[O-].[Ca+2] [calcium propionate],"Length of preservation time of bread with calcium propionate kneaded into the dough, without spraying",11 days
